Numbers after ± are expanded uncertainties.
Assays:
[1] = for mass density: 293.1 K, 101.33 kPa, Liquid, Pycnometric method; for Glass transition temperature / Normal melting temperature: DTA; for Normal melting temperature: Crystal
[2] = refractive index (Na D-line) (dimensionless); details: 293.1 K; 101.33 kPa; Liquid; Standard Abbe refractometry
[3] = Molar enthalpy of transition or fusion; details: Crystal; DSC

CCCC[n+]1cc(C)cc(C)c1C.O=S(=O)([N-]S(=O)(=O)C(F)(F)F)C(F)(F)F
mass density [1]: 1370 ± 20 kg/m3
Glass transition temperature [1]: -74.0 ± 2 °C
refractive index [2]: 1.4583 ± 0.0016

CCCC[n+]1cccc(C)c1C.O=S(=O)([O-])C(F)(F)F
mass density [1]: 1370 ± 20 kg/m3
Normal melting temperature [1]: 17.0 ± 2 °C
Glass transition temperature [1]: -69.0 ± 2 °C
Molar enthalpy of transition or fusion [3]: 4.03 ± 0.139 kcal/mol
refractive index [2]: 1.4748 ± 0.0016

CCCCCCCC[n+]1cc(C)cc(C)c1.N#C[N-]C#N [3,5-dimethyl-1-octylpyridinium dicyanamide]
mass density [1]: 1000 ± 20 kg/m3
Glass transition temperature [1]: -78.0 ± 2 °C
refractive index [2]: 1.5196 ± 0.0016

CCCCCCCC[n+]1cc(C)cc(C)c1.F[B-](F)(F)F [3,5-dimethyl-1-octylpyridinium tetrafluoroborate]
Normal melting temperature [1]: 56.0 ± 2 °C
Molar enthalpy of transition or fusion [3]: 6.71 ± 0.201 kcal/mol

CCCCCCCC[n+]1cc(C)cc(C)c1C.N#C[S-] [2,3,5-trimethyl-1-octylpyridinium thiocyanate]
Normal melting temperature [1]: 20.0 ± 2 °C
Glass transition temperature [1]: -58.0 ± 2 °C
Molar enthalpy of transition or fusion [3]: 3.5 ± 0.127 kcal/mol

CCCCCCCC[n+]1cc(C)cc(C)c1C.O=S(=O)([O-])C(F)(F)F
Glass transition temperature [1]: -56.0 ± 2 °C

CCCCCCCC[n+]1cc(C)cc(C)c1C.O=S(=O)([N-]S(=O)(=O)C(F)(F)F)C(F)(F)F
mass density [1]: 1280 ± 20 kg/m3
Glass transition temperature [1]: -72.0 ± 2 °C
refractive index [2]: 1.4617 ± 0.0016

CCCC[n+]1cc(C)cc(C)c1.O=S(=O)([N-]S(=O)(=O)C(F)(F)F)C(F)(F)F
mass density [1]: 1390 ± 20 kg/m3
Glass transition temperature [1]: -73.0 ± 2 °C
refractive index [2]: 1.4559 ± 0.0016

CCCC[n+]1cc(C)cc(C)c1.O=S(=O)([O-])C(F)(F)F
mass density [1]: 1390 ± 20 kg/m3
Normal melting temperature [1]: 91.0 ± 2 °C
Molar enthalpy of transition or fusion [3]: 6.81 ± 0.203 kcal/mol

CCCC[n+]1cccc(C)c1C.N#C[N-]C#N [1-butyl-2,3-dimethylpyridinium dicyanamide]
Glass transition temperature [1]: -72.0 ± 2 °C
refractive index [2]: 1.5403 ± 0.0016

CCCC[n+]1cc(CC)ccc1C.O=S(=O)([N-]S(=O)(=O)C(F)(F)F)C(F)(F)F
mass density [1]: 1370 ± 20 kg/m3
Glass transition temperature [1]: -81.0 ± 2 °C
refractive index [2]: 1.4552 ± 0.0016

CCCCCCCC[n+]1cc(C)cc(C)c1C.[I-] [2,3,5-trimethyl-1-octylpyridinium iodide]
Glass transition temperature [1]: -31.0 ± 2 °C
refractive index [2]: 1.5776 ± 0.0016

CCCCCCCC[n+]1cccc(C)c1C.N#C[S-] [2,3-dimethyl-1-octylpyridinium thiocyanate]
mass density [1]: 1020 ± 20 kg/m3
Glass transition temperature [1]: -65.0 ± 2 °C
refractive index [2]: 1.5489 ± 0.0016

CCCCCCCC[n+]1cccc(C)c1C.O=S(=O)([N-]S(=O)(=O)C(F)(F)F)C(F)(F)F
mass density [1]: 1290 ± 20 kg/m3
Glass transition temperature [1]: -70.0 ± 2 °C
refractive index [2]: 1.4571 ± 0.01

CCCC[n+]1cc(C)cc(C)c1.N#C[N-]C#N [1-butyl-3,5-dimethylpyridinium dicyanamide]
Normal melting temperature [1]: -1.0 ± 2 °C
Glass transition temperature [1]: -80.0 ± 2 °C
Molar enthalpy of transition or fusion [3]: 0.92 ± 0.0765 kcal/mol
refractive index [2]: 1.5278 ± 0.0016

CCCC[n+]1cc(C)cc(C)c1C.O=S(=O)([O-])C(F)(F)F
Normal melting temperature [1]: 74.0 ± 2 °C
Molar enthalpy of transition or fusion [3]: 5.01 ± 0.16 kcal/mol

CCCCCCCC[n+]1cc(C)cc(C)c1.O=S(=O)([N-]S(=O)(=O)C(F)(F)F)C(F)(F)F
mass density [1]: 1280 ± 20 kg/m3
Glass transition temperature [1]: -78.0 ± 2 °C
refractive index [2]: 1.4526 ± 0.01

CCCC[n+]1cc(C)cc(C)c1.N#C[S-] [1-butyl-3,5-dimethylpyridinium thiocyanate]
Normal melting temperature [1]: 13.0 ± 2 °C
Glass transition temperature [1]: -57.0 ± 2 °C
Molar enthalpy of transition or fusion [3]: 3.83 ± 0.134 kcal/mol

CCCCCCCC[n+]1cc(CC)ccc1C.O=S(=O)([N-]S(=O)(=O)C(F)(F)F)C(F)(F)F
mass density [1]: 1280 ± 20 kg/m3
Glass transition temperature [1]: -78.0 ± 2 °C

CCCCCCCC[n+]1cc(C)cc(C)c1.O=S(=O)([O-])C(F)(F)F
Normal melting temperature [1]: 76.0 ± 2 °C
Molar enthalpy of transition or fusion [3]: 5.93 ± 0.182 kcal/mol

CCCC[n+]1cccc(C)c1C.O=S(=O)([N-]S(=O)(=O)C(F)(F)F)C(F)(F)F
mass density [1]: 1370 ± 20 kg/m3
Glass transition temperature [1]: -81.0 ± 2 °C
refractive index [2]: 1.4497 ± 0.0016

CCCCCCCC[n+]1cc(CC)ccc1C.[I-] [5-ethyl-2-methyl-1-octylpyridinium iodide]
Normal melting temperature [1]: 87.0 ± 2 °C
Glass transition temperature [1]: -33.0 ± 2 °C
Molar enthalpy of transition or fusion [3]: 7.38 ± 0.217 kcal/mol

CCCCCCCC[n+]1cccc(C)c1C.O=S(=O)([O-])C(F)(F)F
mass density [1]: 1180 ± 20 kg/m3
Glass transition temperature [1]: -63.0 ± 2 °C
refractive index [2]: 1.4725 ± 0.0016

CCCCCCCC[n+]1cc(CC)ccc1C.N#C[N-]C#N [5-ethyl-2-methyl-1-octylpyridinium dicyanamide]
Normal melting temperature [1]: 53.0 ± 2 °C
Glass transition temperature [1]: -59.0 ± 2 °C

CCCCCCCC[n+]1cc(C)cc(C)c1.N#C[S-] [3,5-dimethyl-1-octylpyridinium thiocyanate]
mass density [1]: 1000 ± 20 kg/m3
Normal melting temperature [1]: -38.0 ± 2 °C
Glass transition temperature [1]: -74.0 ± 2 °C
Molar enthalpy of transition or fusion [3]: 1.53 ± 0.086 kcal/mol
refractive index [2]: 1.5415 ± 0.0016

CCCCCCCC[n+]1cc(C)cc(C)c1.[I-] [3,5-dimethyl-1-octylpyridinium iodide]
Normal melting temperature [1]: 82.0 ± 2 °C
Glass transition temperature [1]: -41.0 ± 2 °C
Molar enthalpy of transition or fusion [3]: 6.08 ± 0.186 kcal/mol
